Source: patent publication US20070269664A1, “Gas Barrier Laminated Film and Process for Producing the Same” (Sai Nippon Printing Co., Ltd., priority 2004, published 2007)

System: cotton aphid (Aphis gossypii)
Assay: Foliar spray test on cotton seedlings infested with cotton aphid
Format: in vivo
Details: 72 h, read-out: Percent Mortality
Method: Insecticidal testing was conducted on specific compounds of the present invention. Specifically, the compounds referenced below were evaluated on 7-10 day old cotton seedlings infested with cotton aphid (Aphis gossypii). At least 12 hours prior to the test, leaf cuttings containing about 50 adult aphids were placed on leaves of each of duplicate cotton seedlings for each rate of application of compound of formula (I). Solutions of the compounds of formula (I) were prepared for testing by serial dilution of a standard solution comprised of an appropriate amount of the test material in a water/acetone solvent, which contained a small amount of a surfactant. Rates of application of compounds of formula (I) may range from about 1000 parts per million (ppm), or more, to about 3 ppm, or less, in a rate series of, for example, 1000 ppm, 300 ppm, 100 ppm, 30 ppm, 10 ppm, and 3 ppm. The solutions containing each rate of application of compounds of formula (I) were then sprayed to run-off to both the upper and lower portions of the leaves of the aphid-infested cotton seedlings. Each test of foliar-applied compounds of formula (I) included appropriate standard insecticides of known insecticidal activity and blank treatments to aid in assessing the insecticidal activity of the compounds of formula (I). Upon completion of the spraying with compounds of formula (I), the cotton seedlings were maintained in a growth chamber for a period of 72 hours. After this time, the seedlings were examined for dead insects. Insects were classified as dead if they were off-color or brown and desiccated. Upon completion of the evaluation of the test, the percent mortality of the cotton aphid for each rate of application of compounds of formula (I) was determined by comparison of the total number of dead insects to the total number of insects in the test.

Structure (SMILES) | mortality at 1000 ppm [%] | mortality at 100 ppm [%]
CCCCOc1ccc(CCOn2c(C)nc(C)c2C)cc1Cl [Compound 9, 1-[2-(3-chloro-4-n-butoxyphenyl)ethoxy]-2,4,5-trimethylimidazole] | 100 | 
Cc1nc2ccccc2n1OCCc1ccc(C(C)(C)C)c(Cl)c1 [Compound 135, 1-[2-[3-chloro-4-(1,1-dimethylethyl)phenyl]ethoxy]-2-methylbenzimidazole] | 86 | 
CCCCOc1ccc(CCOn2c(C)nc3ccccc32)cc1Cl [Compound 163, 1-[2-(3-chloro-4-n-butoxyphenyl)ethoxy]-2-methylbenzimidazole] | 88 | 
CCCCOc1ccc(CCOn2c(C)nc3c2CCCC3)cc1Cl [Compound 244, 1-[2-(3-chloro-4-n-butoxyphenyl)ethoxy]-2-methyl-4,5,6,7-tetrahydrobenzimidazole] | 98 | 
CCCCOc1ccc(CCOn2c(C)nc3c(F)cccc32)cc1Cl [Compound 246, 1-[2-(3-chloro-4-n-butoxyphenyl)ethoxy]-4-fluoro-2-methylbenzimidazole] | 100 | 
CCCCOc1ccc(CCOn2c(C)nc3c(C)cccc32)cc1Cl [Compound 266, 1-[2-(3-chloro-4-n-butoxyphenyl)ethoxy]-2,4-dimethylbenzimidazole] | 100 | 
CCCCOc1ccc(CCOn2nnc3ccccc32)cc1Cl [Compound 285, 1-[2-(3-chloro-4-n-butoxyphenyl)ethoxy]-1H-benzotriazole] | 31 | 
CCCOC(=O)c1ccc(CCNn2c(C)nc3ccccc32)cc1Cl [Compound 302, propyl 2-chloro-4-[2-(2-methylbenzimidazol-1-ylamino)ethyl]benzoate] |  | 84
CCCCOc1ccc(C(C)(C)CNn2c(C)nc3ccccc32)cc1 [Compound 305, 1-[[2-methyl-2-(4-n-butoxyphenyl)propyl]amino]-2-methylbenzimidazole] | 96 | 
CCCCOc1ccc(CCNn2c(C)nc3ccccc32)cc1Cl [Compound 314, 1-[2-(3-chloro-4-n-butoxyphenyl)ethylamino]-2-methylbenzimidazole] | 100 | 
CCCCOc1c(C)cc(CCNn2c(C)nc3ccccc32)cc1C [Compound 320, 1-[2-(3,5-dimethyl-4-n-butoxyphenyl)ethylamino]-2-methylbenzimidazole] |  | 99
CCCCOc1ccc(CCNn2c(C)nc3c(F)cccc32)cc1Cl [Compound 323, 1-[2-(3-chloro-4-n-butoxyphenyl)ethylamino]-4-fluoro-2-methylbenzimidazole] |  | 96
CCCCOc1c(C)cc(CCNn2c(C)nc3cc(F)ccc32)cc1C [Compound 329, 1-[2-(3,5-dimethyl-4-n-butoxyphenyl)ethylamino]-5-fluoro-2-methylbenzimidazole] |  | 93
CCCC(CCC)Oc1ccc(CCOn2c(C)nc3c(C)cccc32)cc1 [Compound 413, 1-[2-[4-(1-propylbutoxy)phenyl]ethoxy]-2,4-dimethylbenzimidazole] |  | 80
CCCCOc1ccc(CCNn2c(=O)n(C)c3ccccc32)cc1Cl [Compound 417, 1-[2-(3-chloro-4-n-butoxyphenyl)ethylamino]-1,3-dihydro-3-methyl-2H-benzimidazol-2-one] |  | 3
CCON=Cc1c(F)cc(CCOn2c(C)nc3ccccc32)cc1F [Compound 1323, 1-[2-(3,5-difluoro-4-ethoxyiminomethylphenyl)ethoxy]-2-methylbenzimidazole] |  | 97
